Laboratory results: patent publication US9415049B2, “Heteroaryl compounds and uses thereof” (Celgene Avilomics Research, Inc., priority 2013, dated 2016)

Assays:
[1] = system: PLCγ2 phosphorylation (Phospho Y-1217 PLCγ2) in Ramos cells; assay: Btk Ramos cell signaling immunoblot analysis, phospho-PLCγ2; assay type: cell-based; conditions: 1 hour compound incubation, anti-human IgM stimulation, read-out: pPLCγ2 EC50
Experimental: (§1) The following example describes testing certain compounds according to the invention for inhibition of BTK activity. Ramos cells were incubated in serum-free RPMI medium for 1-1.5 hours. Cells were then centrifuged for 5 minutes at 1100 RPM and resuspended in serum-free RPMI in 15 mL roundbottom Corning tubes (˜2×10^6 cells/mL in 4 mL/tube). The compound was diluted in DMSO and was added to the cells to achieve a final concentration of 0.0003, 0.001, 0.003, 0.01, 0.03, 0.1, 0.3, and 1.0 μM. Cells were then incubated for 1 hour at 37° C. Following incubation, cells were spun at 1100 RPM for 5 minutes and then resuspended in 100 μL of serum-free RPMI. […] Supernatant was transferred to a fresh tube and analyzed for protein content. […]
(§2) 10 μg of protein was denatured by adding 1:10 (v:v) of NuPage Reducing Agent plus 1:4 (v:v) of LDS Loading Buffer. […] The membrane was then scanned on a LiCor Odyssey Scanner using infrared fluorescence detection.
(§3) Data analysis was accomplished using the analysis package found in Odyssey Infrared Imaging System software in which intensities of total Btk and phospho-Btk were measured. Phospho-Btk was normalized to total Btk protein in each lane as a loading control and results are expressed as % activity compared to the DMSO control (100%) Inhibition of phospho-PLCγ2 was quantitated in a similar manner. […]

[2] = target: human recombinant full-length Btk enzyme (Homo sapiens, UniProt Q06187); assay: Covalent bonding assay, intact protein MALDI mass spectrometry; assay type: binding; parameters: The full-length recombinant human Btk protein; purchased Invitrogen Lot #619547Q (catalogue number not given); conditions: percentage of total protein covalently modified after one hour incubation, 10-fold excess of compound, room temperature
Experimental: The following example describes testing certain compounds to determine whether they covalently bind to BTK. The full-length recombinant human Btk protein (Lot #619547Q; 0.35 mg/mL) was obtained from Invitrogen (Carlsbad, Calif.). Btk protein was diluted 2:3 in phosphate-buffered saline and stock concentration (10 mM) of compound was diluted 1:115 in 50% DMSO.
For all compounds, 1 μL of diluted compound was added to 5 μL of diluted protein. These mixtures were then incubated for 60 minutes at a 10-fold excess of compound to protein under room temperature (˜24° C.) conditions.
At the end of the incubation, 5 μL aliquots of the samples were diluted with 15 μL of 0.2% TFA prior to micro C4 ZipTipping® directly onto the MALDI target plate using sinapinic acid as the desorption matrix (10 mg/mL in 0.2% TFA:Acetonitrile 50:50). Samples were immediately analyzed on an ABSciex 4800 MALDI TOF-TOF mass spectrometer.
For intact protein mass measurement, the mass spectrometer was set in linear mode using a pulsed extraction setting of 81,500. Bovine serum albumin (BSA; Sigma, St Louis, Mo.) was used as the standard to calibrate the instrument. These values correspond to the percentage of total protein covalently modified by the tested compound after one hour incubation.

[3] = target: T1, BTK autophosphorylation (Phospho Y223 Btk) in Ramos cells (Homo sapiens, UniProt Q06187); assay: Btk Ramos cell signaling immunoblot analysis, phospho-Btk; assay type: cell-based; conditions: 1 hour compound incubation, anti-human IgM stimulation, phospho-Btk normalized to total Btk, read-out: pBtk EC50
T1 construct: endogenous in cells; host or cells: Ramos cells
Experimental: as §1, §2, §3

Sequence of human recombinant full-length Btk enzyme (Q06187 whole entry): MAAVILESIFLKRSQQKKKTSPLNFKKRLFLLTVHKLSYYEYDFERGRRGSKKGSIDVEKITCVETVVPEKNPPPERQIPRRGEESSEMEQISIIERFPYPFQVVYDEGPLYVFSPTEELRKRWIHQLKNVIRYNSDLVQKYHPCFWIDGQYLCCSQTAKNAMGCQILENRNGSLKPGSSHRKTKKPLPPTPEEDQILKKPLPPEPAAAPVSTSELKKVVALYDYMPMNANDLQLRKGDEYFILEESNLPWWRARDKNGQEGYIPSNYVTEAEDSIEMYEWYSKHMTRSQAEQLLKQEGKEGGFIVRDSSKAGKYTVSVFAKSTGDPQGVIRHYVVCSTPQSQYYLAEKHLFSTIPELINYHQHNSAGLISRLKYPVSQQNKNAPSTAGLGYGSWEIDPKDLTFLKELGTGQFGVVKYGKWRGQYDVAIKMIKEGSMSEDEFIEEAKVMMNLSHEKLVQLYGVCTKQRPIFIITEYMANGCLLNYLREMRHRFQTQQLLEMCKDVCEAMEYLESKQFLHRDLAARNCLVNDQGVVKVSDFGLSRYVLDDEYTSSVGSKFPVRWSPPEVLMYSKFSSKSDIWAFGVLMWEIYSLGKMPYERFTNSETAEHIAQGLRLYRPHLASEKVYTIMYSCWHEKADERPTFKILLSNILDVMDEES
T1 sequence (Q06187 whole entry): as above

| SMILES | EC50 [1] | MS % modification [2] | EC50 [3] |
| --- | --- | --- | --- |
| C=CC(=O)Nc1cccc(Nc2nc(Nc3ccc(O)cc3)ncc2F)c1 [Compound I-3, N-(3-((5-fluoro-2-((4-hydroxyphenyl)amino)pyrimidin-4-yl)amino)phenyl)acrylamide] | 10 to 50 nM | A (>70% modification) | 10 to 50 nM |
| C=CC(=O)Nc1cccc(Nc2nc(Nc3ccc(OCCO)cc3)ncc2F)c1 [Compound I-1, N-(3-((5-fluoro-2-((4-(2-hydroxyethoxy)phenyl)amino)pyrimidin-4-yl)amino)phenyl)acrylamide] | < 10 nM | B (31-69% modification) | < 10 nM |
